Measured values taken from patent US20230111914A1, “SYNTHETIC TRITERPENOIDS WITH NITROGEN-BASED SUBSTITUENTS AT C-17 AND METHODS OF USE THEREOF” (REATA PHARMACEUTICALS, INC., priority 2019, published 2023).
Values joined by “and” are separate entries in the source; they are usually repeats but may differ in a detail not shown here. Equal entries are not always repeated. Marks after values point to notes of the source that are not given here.

How the values were obtained:
[1] = test system: IFNγ-induced NO production in RAW 264.7 cells; assay: Nitric oxide suppression assay (IFNγ-induced NO production, Griess nitrite readout); format: cell-based, mouse; details: for IC50: Mus musculus, RAW264.7, RAW 264.7 cells, 2 h pretreatment, 20 ng/mL interferon gamma 24 h, average of trials per footnote, read-out: NO IC50
[2] = test system: AREc32 reporter cell line (luciferase reporter under eight copies of the rat GSTA2 ARE sequence); assay: AREc32 luciferase reporter activation; format: cell-based, human; details: for EC (2-fold): Homo sapiens, Arec32, concentration that increases the luminescence signal 2-fold above vehicle, 19 h treatment, read-out: AREc32 EC2X (Mean ± SD)

SMILES | NO IC50 Rel. to RTA 402 [1] | IC50 [1] [nM] | AREc32 EC2X Relative to RTA 402 (Mean ± SD) [2] | EC (2-fold) [2] [µM] | AREc32 Relative to CC in Same Experiment (Mean ± SD) ([2]; comparison compound CC4, average of ratios from three replicate experiments) | times more active (NO IC50) than 63189 relative to RTA 402 [1]
Cc1cc(C)n(C[C@]23CCC(C)(C)C[C@H]2[C@H]2C(=O)C=C4[C@@]5(C)C=C(C#N)C(=O)C(C)(C)[C@@H]5CC[C@@]4(C)[C@]2(C)CC3)n1 [Compound T22] | 5.29 ± 1.29^d fold | 9.18 ± 1.72 | 3.7^e fold | 0.0445 | – | –
CC1(C)CC[C@]2(CN3CC4(COC4)C3)CC[C@]3(C)[C@H](C(=O)C=C4[C@@]5(C)C=C(C#N)C(=O)C(C)(C)[C@@H]5CC[C@]43C)[C@@H]2C1 [Compound T23] | 2.01 ± 0.53^e fold | 4.16 ± 1.19 | 1.9^e fold | 0.0185 | – | –
CC1(C)CC[C@]2(N3CCCC3=O)CC[C@]3(C)[C@H](C(=O)C=C4[C@@]5(C)C=C(C#N)C(=O)C(C)(C)[C@@H]5CC[C@]43C)[C@@H]2C1 [Compound T24] | 2.17 ± 0.72^e fold | 3.6 ± 0.08 | 3.8^e fold | 0.0379 | – | –
CC1(C)CC[C@]2(CN3CCC3)CC[C@]3(C)[C@H](C(=O)C=C4[C@@]5(C)C=C(C#N)C(=O)C(C)(C)[C@@H]5CC[C@]43C)[C@@H]2C1 [Compound T25] | 1.21 ± 0.45^e fold | 2.5 ± 0.92 | 1.5^e fold | 0.022 | – | –
CC1(C)CC[C@]2(CN3CC(F)C3)CC[C@]3(C)[C@H](C(=O)C=C4[C@@]5(C)C=C(C#N)C(=O)C(C)(C)[C@@H]5CC[C@]43C)[C@@H]2C1 [Compound T26] | 2.73 ± 1.01^e fold | 5.61 ± 1.84 | 1.6^e fold | 0.0236 | – | –
CC1(C)CC[C@]2(CN3CC(F)(F)C3)CC[C@]3(C)[C@H](C(=O)C=C4[C@@]5(C)C=C(C#N)C(=O)C(C)(C)[C@@H]5CC[C@]43C)[C@@H]2C1 [Compound T27] | 8.68 ± 2.12^e fold | 17.8 ± 1.79 | 1.8^e fold | 0.0266 | – | –
CC1(C)CC[C@]2(CN3CC(O)C3)CC[C@]3(C)[C@H](C(=O)C=C4[C@@]5(C)C=C(C#N)C(=O)C(C)(C)[C@@H]5CC[C@]43C)[C@@H]2C1 [Compound T28] | 1.09 ± 0.16^e fold | 2.83 ± 0.92 | 0.9 ± 0.12^a fold | 0.0139 ± 0.00157 | – | –
CC1(C)CC[C@]2(CN3CC(=O)C3)CC[C@]3(C)[C@H](C(=O)C=C4[C@@]5(C)C=C(C#N)C(=O)C(C)(C)[C@@H]5CC[C@]43C)[C@@H]2C1 [Compound T29] | 1.49 ± 0.30^d fold | 6.09 ± 1.46 | 1.2^e fold | 0.0133 | – | –
CN1CCN([C@]23CCC(C)(C)C[C@H]2[C@H]2C(=O)C=C4[C@@]5(C)C=C(C#N)C(=O)C(C)(C)[C@@H]5CC[C@@]4(C)[C@]2(C)CC3)C1=O [Compound T31] | 3.13 ± 0.36^d fold | 12.6 ± 1.65 | 4.3^e fold | 0.0455 | – | –
CC1(C)CC[C@]2(n3cccn3)CC[C@]3(C)[C@H](C(=O)C=C4[C@@]5(C)C=C(C#N)C(=O)C(C)(C)[C@@H]5CC[C@]43C)[C@@H]2C1 [Compound T32] | 2.58 ± 0.60^e fold | 4.89 ± 1.42 | 2.8 ± 0.62^f fold | 0.0323 ± 0.00139 | – | –
CC1(C)CC[C@]2(N3CCOC3=O)CC[C@]3(C)[C@H](C(=O)C=C4[C@@]5(C)C=C(C#N)C(=O)C(C)(C)[C@@H]5CC[C@]43C)[C@@H]2C1 [Compound T34] | 1.23 ± 0.23^e fold | 2.23 ± 0.57 | 2.2^e fold | 0.0236 | – | –
CC1(C)CC[C@]2(N3CCC3=O)CC[C@]3(C)[C@H](C(=O)C=C4[C@@]5(C)C=C(C#N)C(=O)C(C)(C)[C@@H]5CC[C@]43C)[C@@H]2C1 [Compound T38] | 1.69 ± 0.84^e fold | 4.32 ± 3.51 | 2.1^e fold | 0.0361 | – | –
CC1(C)CC[C@]2(n3cnnc3)CC[C@]3(C)[C@H](C(=O)C=C4[C@@]5(C)C=C(C#N)C(=O)C(C)(C)[C@@H]5CC[C@]43C)[C@@H]2C1 [Compound T39] | 42.82 ± 14.24^e fold | 84.5 ± 18.9 | 9.8 ± 1.1^a fold | 0.0943 ± 0.00426 | – | –
CC1(C)CC[C@]2(n3ccoc3=O)CC[C@]3(C)[C@H](C(=O)C=C4[C@@]5(C)C=C(C#N)C(=O)C(C)(C)[C@@H]5CC[C@]43C)[C@@H]2C1 [Compound T40] | 1.37 ± 0.18^d fold | 5.56 ± 0.72 | 1.8^e fold | 0.0196 | – | –
CC1(C)CC[C@]2(n3cc(CO)nn3)CC[C@]3(C)[C@H](C(=O)C=C4[C@@]5(C)C=C(C#N)C(=O)C(C)(C)[C@@H]5CC[C@]43C)[C@@H]2C1 [Compound T42] | 2.97 ± 0.47^d fold | 12.4 ± 3.92 | 1.3 ± 0.34^f fold | 0.0148 ± 0.00277 | 0.490 ± 0.057 | –
Cn1ccn([C@]23CCC(C)(C)C[C@H]2[C@H]2C(=O)C=C4[C@@]5(C)C=C(C#N)C(=O)C(C)(C)[C@@H]5CC[C@@]4(C)[C@]2(C)CC3)c1=O [Compound T46] | 2.62 ± 0.10^d fold | 10.7 ± 1.35 | 3.0^e fold | 0.0316 | – | –
CC1(C)CC[C@]2(CN3CCOC3)CC[C@]3(C)[C@H](C(=O)C=C4[C@@]5(C)C=C(C#N)C(=O)C(C)(C)[C@@H]5CC[C@]43C)[C@@H]2C1 [Compound T47] | 7.54 ± 2.47^d fold | 17.3 ± 8.55 | 8.6^e fold | 0.122 | – | –
CC1(C)CC[C@]2(Cn3cnnc3)CC[C@]3(C)[C@H](C(=O)C=C4[C@@]5(C)C=C(C#N)C(=O)C(C)(C)[C@@H]5CC[C@]43C)[C@@H]2C1 [Compound T49] | 13.72 ± 3.47^e fold | 26.9 ± 10.5 | 4.5^e fold | 0.0389 | – | –
CC1(C)CC[C@]2(CN3NCCC3=O)CC[C@]3(C)[C@H](C(=O)C=C4[C@@]5(C)C=C(C#N)C(=O)C(C)(C)[C@@H]5CC[C@]43C)[C@@H]2C1 [Compound T51] | 2.04 ± 0.73^d fold | 8.55 ± 3.65 | 1.1^e fold | 0.0117 | – | –
[2H]C([2H])([2H])C(=O)NC[C@]12CCC(C)(C)C[C@H]1[C@H]1C(=O)C=C3[C@@]4(C)C=C(C#N)C(=O)C(C)(C)[C@@H]4CC[C@@]3(C)[C@]1(C)CC2 [Compound T52] | 0.28 ± 0.13^e fold | 0.52 ± 0.24 | 0.3^e fold | 0.003 | – | –
CCC(=O)NC[C@]12CCC(C)(C)C[C@H]1[C@H]1C(=O)C=C3[C@@]4(C)C=C(C#N)C(=O)C(C)(C)[C@@H]4CC[C@@]3(C)[C@]1(C)CC2 [Compound T53] | 0.21 fold and 0.21 ± 0.05^e fold | 0.38 | 0.2^e fold | 0.0024 | – | more than 19 times
